Results: PubChem BioAssay (NCI)
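Five compound concentrations were applied to cells in 96-well plates for 48 hours; endpoints were derived by simple linear interpolation of the resulting dose-response curve. GI50: concentration for 50% inhibition of growth. The concentration for full growth arrest is given as TGI.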

What was measured:
Assay in all cases: DTP human tumour cell line panel, 48 h
[1] = tested on: MALME-3M melanoma
[2] = tested on: DU-145 prostate
[3] = tested on: U251 CNS
[4] = tested on: NCI-H522 lung
[5] = tested on: HS 578T breast
[6] = tested on: SNB-75 CNS
[7] = tested on: SNB-19 CNS
[8] = tested on: MOLT-4 leukemia
[9] = tested on: LOX IMVI melanoma
[10] = tested on: SK-MEL-5 melanoma
[11] = tested on: IGROV1 ovarian
[12] = tested on: T-47D breast
[13] = tested on: CAKI-1 renal
[14] = tested on: SK-OV-3 ovarian
[15] = tested on: SF-295 CNS
[16] = tested on: EKVX NSCLC
[17] = tested on: TK-10 renal
[18] = tested on: SF-268 CNS
[19] = tested on: HCT-116 colon
[20] = tested on: OVCAR-5 ovarian
[21] = tested on: SK-MEL-28 melanoma
[22] = tested on: BT-549 breast
[23] = tested on: SK-MEL-2 melanoma
[24] = tested on: MCF7 breast
[25] = tested on: COLO 205 colon
[26] = tested on: SR leukemia
[27] = tested on: OVCAR-3 ovarian
[28] = tested on: OVCAR-4 ovarian
[29] = tested on: HCT-15 colon
[30] = tested on: HOP-92 NSCLC
[31] = tested on: OVCAR-8 ovarian
[32] = tested on: KM12 colon
[33] = tested on: SW-620 colon
[34] = tested on: RPMI-8226 leukemia
[35] = tested on: A549 NSCLC
[36] = tested on: UO-31 renal
[37] = tested on: 786-0 renal
[38] = tested on: HOP-62 NSCLC
[39] = tested on: MDA-MB-435
[40] = tested on: SN12C renal
[41] = tested on: NCI/ADR-RES ovarian
[42] = tested on: NCI-H460 lung
[43] = tested on: SF-539 CNS
[44] = tested on: MDA-MB-231 breast
[45] = tested on: CCRF-CEM leukemia
[46] = tested on: NCI-H226 lung
[47] = tested on: ACHN renal
[48] = tested on: PC-3 prostate
[49] = tested on: HT29 colon
[50] = tested on: NCI-H23 lung
[51] = tested on: HCC-2998 colon
[52] = tested on: M14 melanoma
[53] = tested on: HL-60(TB) leukemia
[54] = tested on: RXF 393 renal
[55] = tested on: K-562 leukemia
[56] = tested on: UACC-62 melanoma
[57] = tested on: A498 renal
[58] = tested on: UACC-257 melanoma

SMILES: O=c1nc(Nc2ccc([N+](=O)[O-])cc2O)sc2ccccc12
- GI50 [1]: 4.09 µM
- TGI [1]: > 16.7 µM
- GI50 [2]: 5.61 µM
- TGI [2]: > 16.7 µM
- GI50 [3]: 1.06 µM
- TGI [3]: > 16.7 µM
- GI50 [4]: 0.786 µM
- TGI [4]: 10.4 µM
- GI50 [5]: 0.576 µM
- TGI [5]: > 16.7 µM
- GI50 [6]: 0.307 µM
- TGI [6]: 1.2 µM
- GI50 [7]: 0.949 µM
- TGI [7]: > 16.7 µM
- GI50 [8]: 3.73 µM
- TGI [8]: > 16.7 µM
- GI50 [9]: 1.14 µM
- TGI [9]: > 16.7 µM
- GI50 [10]: 0.858 µM
- TGI [10]: 5.41 µM
- GI50 [11]: 1.11 µM
- TGI [11]: > 16.7 µM
- GI50 [12]: 4.3 µM
- TGI [12]: > 16.7 µM
- GI50 [13]: 0.659 µM
- TGI [13]: > 16.7 µM
- GI50 [14]: 1.31 µM
- TGI [14]: > 16.7 µM
- GI50 [15]: 1.11 µM
- TGI [15]: > 16.7 µM
- GI50 [16]: 4.05 µM
- TGI [16]: > 16.7 µM
- GI50 [17]: > 16.7 µM
- TGI [17]: > 16.7 µM
- GI50 [18]: 1.31 µM
- TGI [18]: > 16.7 µM
- GI50 [19]: 0.882 µM
- TGI [19]: > 16.7 µM
- GI50 [20]: 9.42 µM
- TGI [20]: > 16.7 µM
- GI50 [21]: 4.22 µM
- TGI [21]: > 16.7 µM
- GI50 [22]: 0.885 µM
- TGI [22]: > 16.7 µM
- GI50 [23]: 1.18 µM
- TGI [23]: > 16.7 µM
- GI50 [24]: 0.637 µM
- TGI [24]: > 16.7 µM
- GI50 [25]: > 16.7 µM
- TGI [25]: > 16.7 µM
- GI50 [26]: 0.462 µM
- TGI [26]: > 16.7 µM
- GI50 [27]: 0.719 µM
- TGI [27]: > 16.7 µM
- GI50 [28]: 4.4 µM
- TGI [28]: > 16.7 µM
- GI50 [29]: 0.756 µM
- TGI [29]: > 16.7 µM
- GI50 [30]: 2.3 µM
- TGI [30]: 15.9 µM
- GI50 [31]: 3.83 µM
- TGI [31]: > 16.7 µM
- GI50 [32]: 1.04 µM
- TGI [32]: > 16.7 µM
- GI50 [33]: 0.955 µM
- TGI [33]: > 16.7 µM
- GI50 [34]: 0.737 µM
- TGI [34]: 10.8 µM
- GI50 [35]: 4.58 µM
- TGI [35]: > 16.7 µM
- GI50 [36]: 0.853 µM
- TGI [36]: > 16.7 µM
- GI50 [37]: 6.06 µM
- TGI [37]: > 16.7 µM
- GI50 [38]: 0.917 µM
- TGI [38]: > 16.7 µM
- GI50 [39]: 0.466 µM
- TGI [39]: > 16.7 µM
- GI50 [40]: 3.15 µM
- TGI [40]: > 16.7 µM
- GI50 [41]: 0.532 µM
- TGI [41]: 4.47 µM
- GI50 [42]: 0.67 µM
- TGI [42]: > 16.7 µM
- GI50 [43]: 0.696 µM
- TGI [43]: 8.94 µM
- GI50 [44]: 7.41 µM
- TGI [44]: > 16.7 µM
- GI50 [45]: 4.47 µM
- TGI [45]: > 16.7 µM
- GI50 [46]: 0.783 µM
- TGI [46]: > 16.7 µM
- GI50 [47]: 2.16 µM
- TGI [47]: > 16.7 µM
- GI50 [48]: 4.92 µM
- TGI [48]: > 16.7 µM
- GI50 [49]: > 16.7 µM
- TGI [49]: > 16.7 µM
- GI50 [50]: 1.1 µM
- TGI [50]: > 16.7 µM
- GI50 [51]: 4.39 µM
- TGI [51]: > 16.7 µM
- GI50 [52]: 0.648 µM
- TGI [52]: > 16.7 µM
- GI50 [53]: 0.662 µM
- TGI [53]: 3.69 µM
- GI50 [54]: 0.437 µM
- TGI [54]: 2.33 µM
- GI50 [55]: 0.557 µM
- TGI [55]: > 16.7 µM
- GI50 [56]: 0.88 µM
- TGI [56]: > 16.7 µM
- GI50 [57]: 0.574 µM
- TGI [57]: 2.3 µM
- GI50 [58]: 1.66 µM
- TGI [58]: > 16.7 µM
